How the values were obtained:
[1] = target: T1, Kir4.1 (Homo sapiens, UniProt P78508); assay: Tl+ flux selectivity assay, Kir4.1; format: cell-based; conditions: n = 2 independent experiments in triplicate, read-out: Inhibition of Tl+ flux (IC50)
T1 construct: expressed in transfected cells
T1 sequence (P78508 1-379): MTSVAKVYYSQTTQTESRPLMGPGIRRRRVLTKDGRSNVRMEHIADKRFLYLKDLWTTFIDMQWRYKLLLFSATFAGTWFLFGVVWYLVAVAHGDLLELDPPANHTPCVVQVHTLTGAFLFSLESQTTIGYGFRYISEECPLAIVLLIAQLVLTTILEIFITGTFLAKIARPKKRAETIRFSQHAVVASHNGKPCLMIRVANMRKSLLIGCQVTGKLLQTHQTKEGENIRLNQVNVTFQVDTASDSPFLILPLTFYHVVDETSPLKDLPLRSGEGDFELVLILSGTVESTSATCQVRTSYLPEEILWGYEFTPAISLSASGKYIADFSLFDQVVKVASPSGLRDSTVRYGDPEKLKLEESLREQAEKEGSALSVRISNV
Description: Tl^+ flux assays were performed essentially as described previously, [18], [19]. Briefly, stably transfected T-Rex-HEK-293 cells expressing AeKir1 channels were cultured overnight in 384-well plates (20,000 cells/20 µL/well black-walled, clear-bottomed BD PureCoat amine-coated plates (BD, Bedford, MA) with a plating media containing DMEM, 10% dialyzed FBS and 1 µg/mL tetracycline. The next day, the cell culture medium was replaced with a dye-loading solution containing assay buffer (Hanks Balanced Salt Solution with 20 mM HEPES, pH 7.3), 0.01% (w/v) Pluronic F-127 (Life Technologies, Carlsbad, CA), and 1.2 µM of the thallium-sensitive dye Thallos-AM (TEFlabs, Austin, TX). Following 1 hr incubation at room temperature, the dye-loading solution was washed from the plates and replaced with 20 µL/well of assay buffer. […] Tl^+ flux data were analyzed as previously described, [21], [22] using a combination of Excel (Microsoft Corp, Redmond, WA) with XLfit add-in (IDBS, Guildford, Surrey, UK) and OriginPro (OriginLab, Northampton, MA) software. […] The slope of the fluorescence increase beginning 5 s after Tl^+ addition and ending 15 s after Tl^+ addition was calculated.

[2] = target: T2, Kir7.1(M125R) (Homo sapiens, UniProt O60928, M125R); assay: Tl+ flux selectivity assay, Kir7.1(M125R); format: cell-based; conditions: n = 2 independent experiments in triplicate, read-out: Inhibition of Tl+ flux (IC50)
T2 construct: expressed in transfected cells
T2 sequence (O60928 1-360 M125R): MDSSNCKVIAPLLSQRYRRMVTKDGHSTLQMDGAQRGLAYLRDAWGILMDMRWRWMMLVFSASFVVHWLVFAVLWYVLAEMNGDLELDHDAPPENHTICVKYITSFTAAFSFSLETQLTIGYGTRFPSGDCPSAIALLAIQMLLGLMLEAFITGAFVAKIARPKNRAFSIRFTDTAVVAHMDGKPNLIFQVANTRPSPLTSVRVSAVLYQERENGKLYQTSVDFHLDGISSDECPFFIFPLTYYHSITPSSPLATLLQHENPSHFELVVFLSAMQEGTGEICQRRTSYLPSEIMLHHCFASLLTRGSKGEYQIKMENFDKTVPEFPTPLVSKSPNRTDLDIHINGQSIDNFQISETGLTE

[3] = test system: adult female mosquitoes (A. aegypti); assay: Mosquito toxicology experiments (hemolymph injection); format: in vivo, Aedes aegypti
Description: The Aedes aegypti mosquito colony used in the present study is identical to that described previously. As before, only adult female mosquitoes 3–10 days post emergence were utilized for experiments.
Adult female mosquitoes for injection were anesthetized on ice and impaled through the metapleuron using a pulled-glass capillary attached to a nanoliter injector (Nanoject II, Drummond Scientific Company, Broomall, PA). Each mosquito received a single hemolymph injection of 69 nL of solution. The injection solution consisted of a potassium-rich phosphate buffered saline (K^+-PBS), 15% DMSO, 1% β-cyclodextrin, 0.1% Solutol, and a concentration of VU625 to deliver the doses indicated. In experiments where probenecid was used, water-soluble probenecid (Biotium, Hayward CA) was included in the injection solution at 50 mM, thereby providing a dose of 3.4 nmol per mosquito.
The K^+-PBS solution consisted of the following in mM: 92.2 NaCl, 47.5 KCl, 10 Na2HPO4, and 2 KH2PO4 (pH 7.5). A total of 10 mosquitoes were injected for a given treatment or dose, and then were placed into small cages within a rearing chamber (28°C, 80% relative humidity, 12∶12 light:dark) and allowed free access to a solution of 10% sucrose. […] For each treatment, 3–7 replicates of 10 mosquitoes each were performed.
Prism (GraphPad Software) was used to generate a dose-response curve for the toxicity of VU625; the doses (x-axis) were first log transformed and then the mortality data was normalized using Prism, where the smallest value and largest values in a data set equal ‘0%’ and ‘100%’, respectively. The data were then fitted using a ‘biphasic’ algorithm (<100 constraint) to calculate potencies (ED25 and ED75 values). To compare 1) the toxic effects among the vehicle, probenecid, VU625, and VU625 + probenecid treatments, and 2) the excretory capacity among the vehicle, probenecid, VU625, and VU625 + probenecid treatments, one-way ANOVAs were performed with Newman-Keuls posttests.

[4] = co-injected with probenecid 3.4 nmol per mosquito, mortality at 24 h post-injection, biphasic fit

CCC(=O)N1c2ccc(S(=O)(=O)Nc3cccc(OC)c3)cc2CC1C (stereo not shown) [VU625, N-(3-methoxyphenyl)-2-methyl-1-propionylindoline-5-sulfonamide]
IC50 [1]: > 30 µM
IC50 [2]: > 30 µM
effect on mosquito behavior or survival ([3]; 690 pmol per mosquito, hemolymph injection, alone, 24 h): no significant effects on mosquito behavior or survival within 24 h
toxicity on co-injection with probenecid ([3]; VU625 690 pmol + probenecid 3.4 nmol per mosquito, 24 h, vs VU625 or probenecid alone): significantly increases the toxicity of VU625 within 24 h
ED25 (mortality) [3, 4]: 9.96 pmol
ED75 (mortality) [3, 4]: 502 pmol
efficacy of VU625 with PBO ([3]; preliminary experiments with PBO): did not improve the efficacy

From paper PMC4222822, “Discovery and Characterization of a Potent and Selective Inhibitor of Aedes aegypti Inward Rectifier Potassium Channels” (PLoS ONE, 2014)
